Residues, ends and D or L forms follow the SMILES beside them. *: point of attachment. Cbz = O=C(OCc1ccccc1)*
Test system: Rab33b
Assay type: cell-based

CC(C)C[C@@H](C=O)NC(=O)[C@H](CC(C)C)NC(=O)[C@H](CC(C)C)NC(=O)OCc1ccccc1 [MG132] (Cbz-Leu-Leu-Leu-aldehyde)
effect on level of modified Rab33b: does not affect the level of modified Rab33b

Reference: patent US10604785B2 (priority 2016, dated 2020)
